# Source: PubChem BioAssay (NCI)
#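 Test compounds were applied to cells in 96-well plates for 48 hours at 5 doses. At the TGI there is no net growth.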
# Experiments:
# Test in all cases: NCI anticancer screen, dose series, 48 h
# 786-0 renal = system: 786-0 renal
# A498 renal = system: A498 renal
# A549 NSCLC = system: A549 NSCLC
# ACHN renal = system: ACHN renal
# CAKI-1 renal = system: CAKI-1 renal
# CCRF-CEM leukemia = system: CCRF-CEM leukemia
# COLO 205 colon = system: COLO 205 colon
# DLD-1 colon = system: DLD-1 colon
# DMS 114 small cell lung = system: DMS 114 small cell lung
# DMS 273 small cell lung = system: DMS 273 small cell lung
# EKVX NSCLC = system: EKVX NSCLC
# HCC-2998 colon = system: HCC-2998 colon
# HCT-116 colon = system: HCT-116 colon
# HCT-15 colon = system: HCT-15 colon
# HL-60(TB) leukemia = system: HL-60(TB) leukemia
# HOP-62 NSCLC = system: HOP-62 NSCLC
# HOP-92 NSCLC = system: HOP-92 NSCLC
# HT29 colon = system: HT29 colon
# IGROV1 ovarian = system: IGROV1 ovarian
# K-562 leukemia = system: K-562 leukemia
# KM20L2 colon = system: KM20L2 colon
# LOX IMVI melanoma = system: LOX IMVI melanoma
# LXFL 529 NSCLC = system: LXFL 529 NSCLC
# M14 melanoma = system: M14 melanoma
# M19-MEL melanoma = system: M19-MEL melanoma
# MALME-3M melanoma = system: MALME-3M melanoma
# MOLT-4 leukemia = system: MOLT-4 leukemia
# NCI-H226 lung = system: NCI-H226 lung
# NCI-H23 lung = system: NCI-H23 lung
# NCI-H460 lung = system: NCI-H460 lung
# NCI-H522 lung = system: NCI-H522 lung
# OVCAR-3 ovarian = system: OVCAR-3 ovarian
# OVCAR-4 ovarian = system: OVCAR-4 ovarian
# OVCAR-5 ovarian = system: OVCAR-5 ovarian
# OVCAR-8 ovarian = system: OVCAR-8 ovarian
# RPMI-8226 leukemia = system: RPMI-8226 leukemia
# RXF 393 renal = system: RXF 393 renal
# RXF-631 renal = system: RXF-631 renal
# SF-268 CNS = system: SF-268 CNS
# SF-295 CNS = system: SF-295 CNS
# SF-539 CNS = system: SF-539 CNS
# SK-MEL-2 melanoma = system: SK-MEL-2 melanoma
# SK-MEL-28 melanoma = system: SK-MEL-28 melanoma
# SK-MEL-5 melanoma = system: SK-MEL-5 melanoma
# SK-OV-3 ovarian = system: SK-OV-3 ovarian
# SN12C renal = system: SN12C renal
# SNB-19 CNS = system: SNB-19 CNS
# SNB-75 CNS = system: SNB-75 CNS
# SNB-78 CNS = system: SNB-78 CNS
# SW-620 colon = system: SW-620 colon
# TK-10 renal = system: TK-10 renal
# UACC-257 melanoma = system: UACC-257 melanoma
# UACC-62 melanoma = system: UACC-62 melanoma
# UO-31 renal = system: UO-31 renal
# XF 498 CNS = system: XF 498 CNS
# HOP-18 NSCLC = system: HOP-18 NSCLC
# KM12 colon = system: KM12 colon
# U251 CNS = system: U251 CNS
# SR leukemia = system: SR leukemia
structure (smiles),measurement,setting,value
COC(=O)C(=O)C(C#N)c1nc2ccccc2s1 (stereo not drawn),TGI,786-0 renal,> 100 µM
same,TGI,A498 renal,> 100 µM
same,TGI,A549 NSCLC,> 100 µM
same,TGI,ACHN renal,> 100 µM
same,TGI,CAKI-1 renal,> 100 µM
same,TGI,CCRF-CEM leukemia,> 100 µM
same,TGI,COLO 205 colon,> 100 µM
same,TGI,DLD-1 colon,> 100 µM
same,TGI,DMS 114 small cell lung,> 100 µM
same,TGI,DMS 273 small cell lung,> 100 µM
same,TGI,EKVX NSCLC,> 100 µM
same,TGI,HCC-2998 colon,> 100 µM
same,TGI,HCT-116 colon,> 100 µM
same,TGI,HCT-15 colon,> 100 µM
same,TGI,HL-60(TB) leukemia,> 100 µM
same,TGI,HOP-62 NSCLC,> 100 µM
same,TGI,HOP-92 NSCLC,> 100 µM
same,TGI,HT29 colon,> 100 µM
same,TGI,IGROV1 ovarian,> 100 µM
same,TGI,K-562 leukemia,> 100 µM
same,TGI,KM20L2 colon,> 100 µM
same,TGI,LOX IMVI melanoma,> 100 µM
same,TGI,LXFL 529 NSCLC,> 100 µM
same,TGI,M14 melanoma,> 100 µM
same,TGI,M19-MEL melanoma,> 100 µM
same,TGI,MALME-3M melanoma,> 100 µM
same,TGI,MOLT-4 leukemia,> 100 µM
same,TGI,NCI-H226 lung,> 100 µM
same,TGI,NCI-H23 lung,> 100 µM
same,TGI,NCI-H460 lung,> 100 µM
same,TGI,NCI-H522 lung,> 100 µM
same,TGI,OVCAR-3 ovarian,> 100 µM
same,TGI,OVCAR-4 ovarian,> 100 µM
same,TGI,OVCAR-5 ovarian,> 100 µM
same,TGI,OVCAR-8 ovarian,> 100 µM
same,TGI,RPMI-8226 leukemia,> 100 µM
same,TGI,RXF 393 renal,> 100 µM
same,TGI,RXF-631 renal,> 100 µM
same,TGI,SF-268 CNS,> 100 µM
same,TGI,SF-295 CNS,> 100 µM
same,TGI,SF-539 CNS,> 100 µM
same,TGI,SK-MEL-2 melanoma,> 100 µM
same,TGI,SK-MEL-28 melanoma,> 100 µM
same,TGI,SK-MEL-5 melanoma,> 100 µM
same,TGI,SK-OV-3 ovarian,> 100 µM
same,TGI,SN12C renal,> 100 µM
same,TGI,SNB-19 CNS,> 100 µM
same,TGI,SNB-75 CNS,> 100 µM
same,TGI,SNB-78 CNS,> 100 µM
same,TGI,SW-620 colon,> 100 µM
same,TGI,TK-10 renal,> 100 µM
same,TGI,UACC-257 melanoma,> 100 µM
same,TGI,UACC-62 melanoma,> 100 µM
same,TGI,UO-31 renal,> 100 µM
same,TGI,XF 498 CNS,> 100 µM
COc1cccc2c1C(=O)c1c(O)c3c(c(O)c1C2=O)C[C@@](O)(C(=O)CO)CC3OC1CC(N(C)CCOCC(OC(C)=O)OC(C)=O)C(O)C(C)O1 (stereo partly drawn),TGI,786-0 renal,> 0.01 µM
same,TGI,A549 NSCLC,> 0.01 µM
same,TGI,ACHN renal,> 0.01 µM
same,TGI,CAKI-1 renal,> 0.01 µM
same,TGI,CCRF-CEM leukemia,> 0.01 µM
same,TGI,DLD-1 colon,> 0.01 µM
same,TGI,DMS 114 small cell lung,> 0.01 µM
same,TGI,EKVX NSCLC,> 0.01 µM
same,TGI,HCC-2998 colon,> 0.01 µM
same,TGI,HL-60(TB) leukemia,> 0.01 µM
same,TGI,HOP-18 NSCLC,> 0.01 µM
same,TGI,HOP-62 NSCLC,> 0.01 µM
same,TGI,HOP-92 NSCLC,> 0.01 µM
same,TGI,HT29 colon,> 0.01 µM
same,TGI,IGROV1 ovarian,> 0.01 µM
same,TGI,K-562 leukemia,> 0.01 µM
same,TGI,KM12 colon,> 0.01 µM
same,TGI,KM20L2 colon,> 0.01 µM
same,TGI,LOX IMVI melanoma,> 0.01 µM
same,TGI,LXFL 529 NSCLC,> 0.01 µM
same,TGI,M14 melanoma,> 0.01 µM
same,TGI,M19-MEL melanoma,> 0.01 µM
same,TGI,MALME-3M melanoma,> 0.01 µM
same,TGI,MOLT-4 leukemia,> 0.01 µM
same,TGI,NCI-H226 lung,> 0.01 µM
same,TGI,NCI-H23 lung,> 0.01 µM
same,TGI,NCI-H460 lung,> 0.01 µM
same,TGI,NCI-H522 lung,> 0.01 µM
same,TGI,OVCAR-3 ovarian,> 0.01 µM
same,TGI,OVCAR-4 ovarian,> 0.01 µM
same,TGI,OVCAR-5 ovarian,> 0.01 µM
same,TGI,OVCAR-8 ovarian,> 0.01 µM
same,TGI,RPMI-8226 leukemia,> 0.01 µM
same,TGI,RXF 393 renal,> 0.01 µM
same,TGI,SF-268 CNS,> 0.01 µM
same,TGI,SF-295 CNS,> 0.01 µM
same,TGI,SF-539 CNS,> 0.01 µM
same,TGI,SK-MEL-2 melanoma,> 0.01 µM
same,TGI,SK-MEL-28 melanoma,> 0.01 µM
same,TGI,SK-MEL-5 melanoma,> 0.01 µM
same,TGI,SK-OV-3 ovarian,> 0.01 µM
same,TGI,SN12C renal,> 0.01 µM
same,TGI,SNB-19 CNS,> 0.01 µM
same,TGI,SNB-75 CNS,> 0.01 µM
same,TGI,SW-620 colon,> 0.01 µM
same,TGI,TK-10 renal,> 0.01 µM
same,TGI,U251 CNS,> 0.01 µM
same,TGI,UACC-257 melanoma,> 0.01 µM
same,TGI,UACC-62 melanoma,> 0.01 µM
same,TGI,UO-31 renal,> 0.01 µM
same,TGI,XF 498 CNS,> 0.01 µM
CC(=O)OC(C)(C)C1CC[C@]2(C)/C=C/C(C)C[C@@H](O)/C=C(\C)CC(O)C12 (stereo partly drawn),TGI,786-0 renal,> 100 µM
same,TGI,A498 renal,> 100 µM
same,TGI,A549 NSCLC,> 100 µM
same,TGI,ACHN renal,> 100 µM
same,TGI,CAKI-1 renal,> 100 µM
same,TGI,CCRF-CEM leukemia,> 100 µM
same,TGI,COLO 205 colon,> 100 µM
same,TGI,DLD-1 colon,> 100 µM
same,TGI,DMS 114 small cell lung,> 100 µM
same,TGI,DMS 273 small cell lung,> 100 µM
same,TGI,EKVX NSCLC,> 100 µM
same,TGI,HCC-2998 colon,> 100 µM
same,TGI,HCT-116 colon,> 100 µM
same,TGI,HCT-15 colon,> 100 µM
same,TGI,HL-60(TB) leukemia,> 100 µM
same,TGI,HOP-18 NSCLC,> 100 µM
same,TGI,HOP-62 NSCLC,> 100 µM
same,TGI,HOP-92 NSCLC,> 100 µM
same,TGI,HT29 colon,> 100 µM
same,TGI,IGROV1 ovarian,> 100 µM
same,TGI,K-562 leukemia,> 100 µM
same,TGI,KM12 colon,> 100 µM
same,TGI,KM20L2 colon,> 100 µM
same,TGI,LOX IMVI melanoma,> 100 µM
same,TGI,LXFL 529 NSCLC,> 100 µM
same,TGI,M14 melanoma,> 100 µM
same,TGI,M19-MEL melanoma,> 100 µM
same,TGI,MALME-3M melanoma,> 100 µM
same,TGI,MOLT-4 leukemia,> 100 µM
same,TGI,NCI-H226 lung,> 100 µM
same,TGI,NCI-H23 lung,> 100 µM
same,TGI,NCI-H460 lung,> 100 µM
same,TGI,OVCAR-3 ovarian,> 100 µM
same,TGI,OVCAR-4 ovarian,> 100 µM
same,TGI,OVCAR-5 ovarian,> 100 µM
same,TGI,OVCAR-8 ovarian,> 100 µM
same,TGI,RPMI-8226 leukemia,> 100 µM
same,TGI,RXF 393 renal,> 100 µM
same,TGI,RXF-631 renal,> 100 µM
same,TGI,SF-268 CNS,> 100 µM
same,TGI,SF-295 CNS,> 100 µM
same,TGI,SF-539 CNS,> 100 µM
same,TGI,SK-MEL-2 melanoma,> 100 µM
same,TGI,SK-MEL-28 melanoma,> 100 µM
same,TGI,SK-MEL-5 melanoma,> 100 µM
same,TGI,SK-OV-3 ovarian,> 100 µM
same,TGI,SN12C renal,> 100 µM
same,TGI,SNB-19 CNS,> 100 µM
same,TGI,SNB-75 CNS,> 100 µM
same,TGI,SNB-78 CNS,> 100 µM
same,TGI,SR leukemia,> 100 µM
same,TGI,SW-620 colon,> 100 µM
same,TGI,TK-10 renal,> 100 µM
same,TGI,U251 CNS,> 100 µM
same,TGI,UACC-257 melanoma,> 100 µM
same,TGI,UACC-62 melanoma,> 100 µM
same,TGI,UO-31 renal,> 100 µM
